# Patent US8927717B1, “Thiochromeno[2,3-c]quinolin-12-one derivatives, preparation method and application thereof” (National Defense Medical Center, priority 2014, dated 2015)
# Legend:
# Assay type in all cases: cell-based
# HS 578T = test system: HS 578T
# 786-0 = test system: 786-0
# ACHN = test system: ACHN
# SN12C = test system: SN12C
# NCI-H460 = test system: NCI-H460
# K-562 = test system: K-562
# OVCAR-5 = test system: OVCAR-5
# SK-MEL-5 = test system: SK-MEL-5
# PC-3 = test system: PC-3
# RXF 393 = test system: RXF 393
# SF-268 = test system: SF-268
# UO-31 = test system: UO-31
# NCI-H522 = test system: NCI-H522
# UACC-62 = test system: UACC-62
# T-47D = conditions: Breast cancer; 10^−5 molar; 48 hours; SRB
# LOX IMVI = test system: LOX IMVI
# OVCAR-8 = test system: OVCAR-8
# SW-620 = test system: SW-620
# SNB-19 = test system: SNB-19
# [1] = Renal cancer, 10^−5 molar, 48 hours, SRB
# [2] = Homo sapiens, NCI-H460, five dose
# [3] = Non-small cell lung cancer, 10^−5 molar, 48 hours, SRB
# [4] = Ovarian cancer, 10^−5 molar, 48 hours, SRB
# [5] = Homo sapiens, SK-MEL-5, five dose
# [6] = Melanoma, 10^−5 molar, 48 hours, SRB
# [7] = CNS cancer, 10^−5 molar, 48 hours, SRB
# [8] = Homo sapiens, NCI-H522, five dose
# [9] = Homo sapiens, LOX IMVI, five dose
# [10] = Homo sapiens, SW-620, five dose
# [11] = Homo sapiens, SNB-19, five dose
structure (smiles),measurement,setting,value
"CN(C)CCNc1nc2ccccc2c2c(=O)c3cc(Cl)ccc3sc12 [Compound N7, 10-Chloro-6-((2-(dimethylamino)ethyl)amino)-12H-thiochromeno[2,3-c]quinolin-12-one]",Growth percent HS 578T,"HS 578T; Breast cancer, 10^−5 molar, 48 hours, SRB",34.31%
same,TGI,"HS 578T; HS 578T, five dose",4.02 µM
same,GI50,"HS 578T; Homo sapiens, HS 578T, five dose",1.74 µM
same,CC50,"HS 578T; Homo sapiens, HS 578T, five dose, read-out: LC50 (the source's name)",9.27 µM
same,TGI,"786-0; 786-0, five dose",3.45 µM
same,GI50,"786-0; Homo sapiens, 786-0, five dose",1.84 µM
same,CC50,"786-0; Homo sapiens, 786-0, five dose, read-out: LC50 (the source's name)",6.46 µM
same,Growth percent 786-0,786-0; [1],43.11%
same,TGI,"ACHN; ACHN, five dose",3.07 µM
same,GI50,"ACHN; Homo sapiens, ACHN, five dose",1.63 µM
same,CC50,"ACHN; Homo sapiens, ACHN, five dose, read-out: LC50 (the source's name)",5.77 µM
same,Growth percent ACHN,ACHN; [1],7.55%
same,GI50,"SN12C; Homo sapiens, SN12C, five dose",1.59 µM
same,CC50,"SN12C; Homo sapiens, SN12C, five dose, read-out: LC50 (the source's name)",6.12 µM
same,Growth percent SN12C,SN12C; [1],48.67%
same,TGI,"SN12C; SN12C, five dose",3.12 µM
same,GI50,NCI-H460; [2],1.76 µM
same,LC50,NCI-H460; [2],6.5 µM
same,TGI,"NCI-H460; NCI-H460, five dose",3.38 µM
same,Growth percent NCI-H460,NCI-H460; [3],−71.14%
same,GI50,"K-562; Homo sapiens, K562, K-562, five dose",1.33 µM
same,CC50,"K-562; Homo sapiens, K562, K-562, five dose, read-out: LC50 (the source's name)",6.74 µM
same,TGI,"K-562; K-562, five dose",3.00 µM
same,Growth percent K-562,"K-562; Leukemia, 10^−5 molar, 48 hours, SRB",−58.60%
same,GI50,"OVCAR-5; Homo sapiens, OVCAR-5, five dose",1.45 µM
same,CC50,"OVCAR-5; Homo sapiens, OVCAR-5, five dose, read-out: LC50 (the source's name)",5.83 µM
same,TGI,"OVCAR-5; OVCAR-5, five dose",2.91 µM
same,Growth percent OVCAR-5,OVCAR-5; [4],24.27%
same,GI50,SK-MEL-5; [5],1.57 µM
same,LC50,SK-MEL-5; [5],8.21 µM
same,Growth percent SK-MEL-5,SK-MEL-5; [6],18.83%
same,TGI,"SK-MEL-5; SK-MEL-5, five dose",3.59 µM
same,GI50,"PC-3; Homo sapiens, PC-3, five dose",1.47 µM
same,CC50,"PC-3; Homo sapiens, PC-3, five dose, read-out: LC50 (the source's name)",5.74 µM
same,TGI,"PC-3; PC-3, five dose",2.90 µM
same,Growth percent PC-3,"PC-3; Prostate cancer, 10^−5 molar, 48 hours, SRB",33.32%
same,GI50,"RXF 393; Homo sapiens, RXF 393, five dose",1.6 µM
same,CC50,"RXF 393; Homo sapiens, RXF 393, five dose, read-out: LC50 (the source's name)",7.29 µM
same,TGI,"RXF 393; RXF 393, five dose",3.41 µM
same,Growth percent RXF 393,RXF 393; [1],−15.29%
same,Growth percent SF-268,SF-268; [7],39.05%
same,GI50,"SF-268; Homo sapiens, SF-268, five dose",1.57 µM
same,CC50,"SF-268; Homo sapiens, SF-268, five dose, read-out: LC50 (the source's name)",6.35 µM
same,TGI,"SF-268; SF-268, five dose",3.16 µM
same,GI50,"UO-31; Homo sapiens, UO-31, five dose",1.19 µM
same,CC50,"UO-31; Homo sapiens, UO-31, five dose, read-out: LC50 (the source's name)",5.22 µM
same,Growth percent UO-31,UO-31; [1],21.83%
same,TGI,"UO-31; UO-31, five dose",2.50 µM
same,GI50,NCI-H522; [8],1.59 µM
same,LC50 (concentration causing 50% net cell kill),NCI-H522; [8],5.9 µM
same,TGI,"NCI-H522; NCI-H522, five dose",3.07 µM
same,Growth percent NCI-H522,NCI-H522; [3],−8.99%
same,GI50,"UACC-62; Homo sapiens, UACC-62, five dose",1.7 µM
same,CC50,"UACC-62; Homo sapiens, UACC-62, five dose, read-out: LC50 (the source's name)",5.88 µM
same,Growth percent UACC-62,UACC-62; [6],−76.58%
same,TGI,"UACC-62; UACC-62, five dose",3.16 µM
same,Growth percent T-47D,T-47D,26.06%
same,GI50,LOX IMVI; [9],1.68 µM
same,LC50,LOX IMVI; [9],6.24 µM
same,TGI,"LOX IMVI; LOX IMVI, five dose",3.24 µM
same,Growth percent LOX IMVI,LOX IMVI; [6],−84.12%
same,GI50,"OVCAR-8; Homo sapiens, OVCAR-8, five dose",1.64 µM
same,CC50,"OVCAR-8; Homo sapiens, OVCAR-8, five dose, read-out: LC50 (the source's name)",6.06 µM
same,TGI,"OVCAR-8; OVCAR-8, five dose",3.15 µM
same,Growth percent OVCAR-8,OVCAR-8; [4],1.22%
same,Growth percent SW-620,"SW-620; Colon cancer, 10^−5 molar, 48 hours, SRB",−67.82%
same,GI50,SW-620; [10],1.71 µM
same,LC50,SW-620; [10],6.36 µM
same,TGI,"SW-620; SW-620, five dose",3.29 µM
same,Growth percent SNB-19,SNB-19; [7],55.44%
same,GI50,SNB-19; [11],1.54 µM
same,LC50 (concentration killing 50% of cells),SNB-19; [11],6.1 µM
same,TGI,"SNB-19; SNB-19, five dose",3.07 µM
